Values after ≈ are worked out from the molar mass of the structure shown.
Assays:
HepG2 [1] = experiment: Cytotoxicity against human HepG2 cells assessed as reduction in cell viability; format: functional, cell-based
DLD-1 = experiment: Cytotoxicity against human DLD1 cells assessed as reduction in cell viability; format: functional, cell-based
HeLa [2] = experiment: Antiproliferative activity against human HeLa cells by MTT assay; format: functional, cell-based
MCF7 [3] = experiment: Cytotoxicity against human MCF7 cells assessed as reduction in cell viability by SRB assay; format: functional, cell-based
A549 [4] = experiment: Cytotoxicity against human A549 cells assessed as reduction in cell viability by SRB assay; format: functional, cell-based
[5] = Cytotoxicity against human MCF7/DX cells assessed as reduction in cell viability by SRB assay; format: functional, cell-based
DU-145 = experiment: Cytotoxicity against human DU145 cells assessed as reduction in cell viability by SRB assay; format: functional, cell-based
HeLa [6] = experiment: Cytotoxicity against human HeLa cells assessed as reduction in cell viability by SRB assay; format: functional, cell-based
HepG2 [7] = experiment: Cytotoxicity against human HepG2 cells assessed as reduction in cell viability by SRB assay; format: functional, cell-based
SK-OV-3 = experiment: Cytotoxicity against human SKOV3 cells assessed as reduction in cell viability by SRB assay; format: functional, cell-based
K562 [8] = experiment: Anticancer activity against human K562 cells by MTT assay; format: functional, cell-based
MDA-MB-231 = experiment: Anticancer activity against human MDA-MB-231 cells by MTT assay; format: functional, cell-based
HeLa [9] = experiment: Anticancer activity against human HeLa cells by MTT assay; format: functional, cell-based
A549 [10] = experiment: Anticancer activity against human A549 cells by MTT assay; format: functional, cell-based
BHK-21 = experiment: Cytotoxicity against BHK21 cells assessed as reduction in cell viability after 48 hrs by SRB assay; format: cell-based; details: Mesocricetus auratus, BHK-21, 48 h
NCI-H157 = experiment: Cytotoxicity against human NCI-H157 cells assessed as reduction in cell viability after 48 hrs by SRB assay; format: functional, cell-based; details: NCI-H157, 48 h
MCF7 [11] = experiment: Cytotoxicity against human MCF7 cells assessed as reduction in cell viability after 68 hrs by MTT assay; format: functional, cell-based; details: MCF7, 68 h
A549 [12] = experiment: Cytotoxicity against human A549 cells assessed as reduction in cell viability after 68 hrs by MTT assay; format: functional, cell-based; details: A549, 68 h
[13] = molecular target: RAC-alpha serine/threonine-protein kinase (Homo sapiens, UniProt P31749); experiment: Inhibition of AKT phosphorylation in human K562 cells; format: cell-based
Chain of RAC-alpha serine/threonine-protein kinase (P31749 whole entry): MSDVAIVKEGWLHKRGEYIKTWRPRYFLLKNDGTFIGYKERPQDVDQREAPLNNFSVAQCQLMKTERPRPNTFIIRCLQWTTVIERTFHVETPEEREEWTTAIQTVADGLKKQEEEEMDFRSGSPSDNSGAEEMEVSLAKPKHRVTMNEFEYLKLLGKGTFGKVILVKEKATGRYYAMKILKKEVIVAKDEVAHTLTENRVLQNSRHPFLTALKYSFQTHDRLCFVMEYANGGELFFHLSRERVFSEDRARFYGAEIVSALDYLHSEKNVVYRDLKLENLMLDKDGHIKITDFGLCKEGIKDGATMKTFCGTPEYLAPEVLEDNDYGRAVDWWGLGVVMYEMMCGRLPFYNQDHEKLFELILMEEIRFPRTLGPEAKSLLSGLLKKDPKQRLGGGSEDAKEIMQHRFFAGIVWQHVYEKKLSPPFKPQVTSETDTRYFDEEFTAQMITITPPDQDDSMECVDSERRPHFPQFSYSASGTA

HeLa [14] = experiment: Cytotoxicity against human HeLa cells assessed as reduction in cell viability after 68 hrs by MTT assay; format: functional, cell-based
K562 [15] = experiment: Cytotoxicity against human K562 cells assessed as reduction in cell viability after 68 hrs by MTT assay; format: functional, cell-based; details: K562, 68 h
MCF7 [16] = experiment: Cytotoxicity against human MCF7 cells assessed as reduction in cell viability by MTT assay; format: functional, cell-based; details: Homo sapiens, MCF7

Row | Compound | IC50 (MCF7 [3]) | IC50 (A549 [4]) | IC50 [5] | IC50 (DU-145) | IC50 (HeLa [6]) | IC50 (HepG2 [7]) | IC50 (SK-OV-3) | other results
1 | CNc1ncc(C(=O)c2cc3ccccc3oc2=O)s1 | – | – | – | – | – | – | – | IC50 (HepG2 [1]): 5.66 to 100 µg/mL (≈ 19.8 to 349 µM); IC50 (DLD-1): 5.66 to 100 µg/mL (≈ 19.8 to 349 µM)
2 | COC(=O)c1sc(N/N=C(\C)c2cc3ccccc3oc2=O)nc1C | – | – | – | – | – | – | – | IC50 (HeLa [2]): 0.0091 to 0.569 µM
3 | CO/N=C1\C(=O)N(CCOCCOc2ccc3c(C)cc(=O)oc3c2)c2ccc(F)cc21 | 10.3 to 50 µM | 10.3 to 50 µM | 10.3 to 50 µM | 10.3 to 50 µM | 10.3 to 50 µM | 10.3 to 50 µM | 10.3 to 50 µM | –
4 | Cc1cc(=O)oc2cc(OCCOCCN3C(=O)/C(=N\O)c4ccccc43)ccc12 | 10.3 to 50 µM | 10.3 to 50 µM | 10.3 to 50 µM | 10.3 to 50 µM | 10.3 to 50 µM | 10.3 to 50 µM | 10.3 to 50 µM | –
5 | COC(=O)c1sc(N/N=C(\C)c2cc3cc(Br)ccc3oc2=O)nc1C | – | – | – | – | – | – | – | IC50 (HeLa [2]): 0.0091 to 0.569 µM
6 | CO/N=C1\C(=O)N(CCOCCOc2ccc3c(C)cc(=O)oc3c2)c2ccc(Cl)cc21 | 10.3 to 50 µM | 10.3 to 50 µM | 10.3 to 50 µM | 10.3 to 50 µM | 10.3 to 50 µM | 10.3 to 50 µM | 10.3 to 50 µM | –
7 | Cc1nn(-c2ccc(Br)cc2)c(=O)n1-n1c(-c2cc3ccccc3oc2=O)cs/c1=N\c1ccccc1 | – | – | – | – | – | – | – | IC50 (K562 [8]): 0.16 to 1.12 µg/mL (≈ 0.28 to 1.96 µM); IC50 (MDA-MB-231): 0.16 to 1.12 µg/mL (≈ 0.28 to 1.96 µM); IC50 (HeLa [9]): 0.16 to 1.12 µg/mL (≈ 0.28 to 1.96 µM); IC50 (A549 [10]): 0.16 to 1.12 µg/mL (≈ 0.28 to 1.96 µM)
8 | O=c1oc2ccccc2cc1-c1nnc2n1N=C(c1ccc(Br)cc1)CS2 | – | – | – | – | – | – | – | IC50 (BHK-21): 1.01 to 5.72 µM; IC50 (NCI-H157): 1.01 to 5.72 µM
9 | C/C(=N\Nc1ncc(C(=O)c2cc3ccccc3oc2=O)s1)c1ccc(C)cc1 | – | – | – | – | – | – | – | EC50 (HepG2 [1]): 3.7 to 9.54 µg/mL (≈ 9.17 to 23.6 µM); EC50 (DLD-1): 3.7 to 9.54 µg/mL (≈ 9.17 to 23.6 µM)
10 | Cc1cc(=O)oc2cc(OCCOCCN3C(=O)C(=O)c4cc(F)ccc43)ccc12 | 10.3 to 50 µM | 10.3 to 50 µM | 10.3 to 50 µM | 10.3 to 50 µM | 10.3 to 50 µM | 10.3 to 50 µM | 10.3 to 50 µM | –
11 | C/C(=N\Nc1ncc(C(=O)c2cc3ccccc3oc2=O)s1)c1ccccc1 | – | – | – | – | – | – | – | EC50 (HepG2 [1]): 3.7 to 9.54 µg/mL (≈ 9.5 to 24.5 µM); EC50 (DLD-1): 3.7 to 9.54 µg/mL (≈ 9.5 to 24.5 µM)
12 | Cc1c(Cc2ccc(NC(=O)Nc3cccc(Cl)c3)nc2)c(=O)oc2cc(O)c(C(C)(C)C)cc12 | – | – | – | – | – | – | – | IC50 (MCF7 [11]): 1.66 to 9.27 µM; IC50 (A549 [12]): 1.66 to 9.27 µM; IC50 [13]: < 10 µM; IC50 (HeLa [14]): 1.66 to 9.27 µM; IC50 (K562 [15]): 1.66 to 9.27 µM
13 | COc1ccc(NC(=O)Nc2ccc(Cc3c(C)c4cc(C(C)(C)C)c(O)cc4oc3=O)cn2)cc1 | – | – | – | – | – | – | – | IC50 (MCF7 [11]): 1.66 to 9.27 µM; IC50 (A549 [12]): 1.66 to 9.27 µM; IC50 [13]: < 10 µM; IC50 (HeLa [14]): 1.66 to 9.27 µM; IC50 (K562 [15]): 1.66 to 9.27 µM
14 | Cc1cc(=O)oc2cc(/N=N/c3ccccc3)c(O)c(/N=N/c3ccccc3)c12 | – | – | – | – | – | – | – | IC50 (MCF7 [16]): 1.87 µg/mL (≈ 4.86 µM)
15 | C=CCNc1ncc(C(=O)c2cc3ccccc3oc2=O)s1 | – | – | – | – | – | – | – | IC50 (HepG2 [1]): 5.66 to 100 µg/mL (≈ 18.1 to 320 µM); IC50 (DLD-1): 5.66 to 100 µg/mL (≈ 18.1 to 320 µM)
16 | CC(=O)c1ccc(C2=Nn3c(nnc3-c3cc4ccccc4oc3=O)SC2)cc1 | – | – | – | – | – | – | – | IC50 (BHK-21): 1.01 to 5.72 µM; IC50 (NCI-H157): 1.01 to 5.72 µM
17 | CO/N=C1\C(=O)N(CCOCCOc2ccc3c(C)cc(=O)oc3c2)c2ccccc21 | 10.3 to 50 µM | 10.3 to 50 µM | 10.3 to 50 µM | 10.3 to 50 µM | 10.3 to 50 µM | 10.3 to 50 µM | 10.3 to 50 µM | –
18 | CO/N=C1\C(=O)N(CCOCCOc2ccc3c(C)cc(=O)oc3c2)c2ccc(C)cc21 | 10.3 to 50 µM | 10.3 to 50 µM | 10.3 to 50 µM | 10.3 to 50 µM | 10.3 to 50 µM | 10.3 to 50 µM | 10.3 to 50 µM | –
19 | Cc1nn(-c2ccc(Br)cc2)c(=O)n1-n1c(-c2cc3ccccc3oc2=O)cs/c1=N\c1ccc(Cl)cc1 | – | – | – | – | – | – | – | IC50 (K562 [8]): 0.16 to 1.12 µg/mL (≈ 0.264 to 1.85 µM); IC50 (MDA-MB-231): 0.16 to 1.12 µg/mL (≈ 0.264 to 1.85 µM); IC50 (HeLa [9]): 0.16 to 1.12 µg/mL (≈ 0.264 to 1.85 µM); IC50 (A549 [10]): 0.16 to 1.12 µg/mL (≈ 0.264 to 1.85 µM)
20 | Cc1c(Cc2ccc(NC(=O)Nc3ccc(F)cc3)nc2)c(=O)oc2cc(O)c(C(C)(C)C)cc12 | – | – | – | – | – | – | – | IC50 (MCF7 [11]): 1.66 to 9.27 µM; IC50 (A549 [12]): 1.66 to 9.27 µM; IC50 [13]: < 10 µM; IC50 (HeLa [14]): 1.66 to 9.27 µM; IC50 (K562 [15]): 1.66 to 9.27 µM
21 | Cc1ccc2c(c1)/C(=N/O)C(=O)N2CCOCCOc1ccc2c(C)cc(=O)oc2c1 | 10.3 to 50 µM | 10.3 to 50 µM | 10.3 to 50 µM | 10.3 to 50 µM | 10.3 to 50 µM | 10.3 to 50 µM | 10.3 to 50 µM | –
22 | Cc1cc(=O)oc2cc(OCCOCCN3C(=O)C(=O)c4cc(Cl)ccc43)ccc12 | 10.3 to 50 µM | 10.3 to 50 µM | 10.3 to 50 µM | 10.3 to 50 µM | 10.3 to 50 µM | 10.3 to 50 µM | 10.3 to 50 µM | –
23 | O=C(c1cnc(Nc2ccccc2)s1)c1cc2ccccc2oc1=O | – | – | – | – | – | – | – | IC50 (HepG2 [1]): 5.66 to 100 µg/mL (≈ 16.2 to 287 µM); IC50 (DLD-1): 5.66 to 100 µg/mL (≈ 16.2 to 287 µM)
24 | Cc1ccc(-n2nc(C)n(-n3c(-c4cc5ccccc5oc4=O)cs/c3=N\c3ccc(Cl)cc3)c2=O)cc1 | – | – | – | – | – | – | – | IC50 (K562 [8]): 0.16 to 1.12 µg/mL (≈ 0.295 to 2.07 µM); IC50 (MDA-MB-231): 0.16 to 1.12 µg/mL (≈ 0.295 to 2.07 µM); IC50 (HeLa [9]): 0.16 to 1.12 µg/mL (≈ 0.295 to 2.07 µM); IC50 (A549 [10]): 0.16 to 1.12 µg/mL (≈ 0.295 to 2.07 µM)
25 | COc1cc([C@@H]2c3cc4c(cc3[C@@H](O[C@@H]3O[C@@H]5CO[C@@H](C)O[C@H]5[C@H](O)[C@H]3O)[C@H]3COC(=O)[C@H]23)OCO4)cc(OC)c1O [ETOPOSIDE] | – | > 50 µM | > 50 µM | – | > 50 µM | – | – | –
26 | CC[C@]1(O)C[C@H]2CN(CCc3c([nH]c4ccccc34)[C@@](C(=O)OC)(c3cc4c(cc3OC)N(C=O)[C@H]3[C@@](O)(C(=O)OC)[C@H](OC(C)=O)[C@]5(CC)C=CCN6CC[C@]43[C@@H]65)C2)C1 [VINCRISTINE] | – | – | – | – | – | – | – | IC50 (BHK-21): 1.08 µM; IC50 (NCI-H157): 1.03 µM

— ChEMBL document CHEMBL4373717, “Coumarin-containing hybrids and their anticancer activities” (Eur J Med Chem, 2019)
